Experimental data reported in the supplement of paper PMC11451515.

Tested on: NOMO1
Experiment: cell viability relative to DMSO control; higher = less cytotoxic
Conditions: 48 h
How it was run: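 Before seeding, each leukemia line was adapted for at least four passages in each medium. NOMO1 or SEM cells (500 cells/well) and P12-Ichikawa cells (1000 cells/well) went into 1536-well plates at 5 μl, then received library compounds in DMSO by pin dosing across 11 threefold concentrations, 47 μM to 0.79 nM. Readout was CellTiter-Glo One luminescence after 48 h at 37°C, and viability is given as a per-plate percentage of DMSO wells, with cell-free wells as background.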

[1] = HPLM + 10% dialyzed FBS, 0.000781 µM
[2] = HPLM + 10% dialyzed FBS, 0.00234 µM
[3] = HPLM + 10% dialyzed FBS, 0.00702 µM
[4] = HPLM + 10% dialyzed FBS, 0.0211 µM
[5] = HPLM + 10% dialyzed FBS, 0.0632 µM
[6] = HPLM + 10% dialyzed FBS, 0.19 µM
[7] = HPLM + 10% dialyzed FBS, 0.569 µM
[8] = HPLM + 10% dialyzed FBS, 1.71 µM
[9] = HPLM + 10% dialyzed FBS, 5.12 µM
[10] = HPLM + 10% dialyzed FBS, 15.4 µM
[11] = HPLM + 10% dialyzed FBS, 46.1 µM
[12] = RPMI 5 mM glucose + 10% FBS, 0.000781 µM
[13] = RPMI 5 mM glucose + 10% FBS, 0.00234 µM
[14] = RPMI 5 mM glucose + 10% FBS, 0.00702 µM
[15] = RPMI 5 mM glucose + 10% FBS, 0.0211 µM
[16] = RPMI 5 mM glucose + 10% FBS, 0.0632 µM
[17] = RPMI 5 mM glucose + 10% FBS, 0.19 µM
[18] = RPMI 5 mM glucose + 10% FBS, 0.569 µM
[19] = RPMI 5 mM glucose + 10% FBS, 1.71 µM
[20] = RPMI 5 mM glucose + 10% FBS, 5.12 µM
[21] = RPMI 5 mM glucose + 10% FBS, 15.4 µM
[22] = RPMI 5 mM glucose + 10% FBS, 46.1 µM
[23] = RPMI 5 mM glucose + 10% dialyzed FBS, 0.000781 µM
[24] = RPMI 5 mM glucose + 10% dialyzed FBS, 0.00234 µM
[25] = RPMI 5 mM glucose + 10% dialyzed FBS, 0.00702 µM
[26] = RPMI 5 mM glucose + 10% dialyzed FBS, 0.0211 µM
[27] = RPMI 5 mM glucose + 10% dialyzed FBS, 0.0632 µM
[28] = RPMI 5 mM glucose + 10% dialyzed FBS, 0.19 µM
[29] = RPMI 5 mM glucose + 10% dialyzed FBS, 0.569 µM
[30] = RPMI 5 mM glucose + 10% dialyzed FBS, 1.71 µM
[31] = RPMI 5 mM glucose + 10% dialyzed FBS, 5.12 µM
[32] = RPMI 5 mM glucose + 10% dialyzed FBS, 15.4 µM
[33] = RPMI 5 mM glucose + 10% dialyzed FBS, 46.1 µM

Structure (SMILES) | cell viability [1] [%] | cell viability [2] [%] | cell viability [3] [%] | cell viability [4] [%] | cell viability [5] [%] | cell viability [6] [%] | cell viability [7] [%] | cell viability [8] [%] | cell viability [9] [%] | cell viability [10] [%] | cell viability [11] [%] | cell viability [12] [%] | cell viability [13] [%] | cell viability [14] [%] | cell viability [15] [%] | cell viability [16] [%] | cell viability [17] [%] | cell viability [18] [%] | cell viability [19] [%] | cell viability [20] [%] | cell viability [21] [%] | cell viability [22] [%] | cell viability [23] [%] | cell viability [24] [%] | cell viability [25] [%] | cell viability [26] [%] | cell viability [27] [%] | cell viability [28] [%] | cell viability [29] [%] | cell viability [30] [%] | cell viability [31] [%] | cell viability [32] [%] | cell viability [33] [%]
CCCCCNC(=N)N/N=C/c1c[nH]c2ccc(OC)cc12 | 123 | 121 | 134 | 132 | 137 | 135 | 147 | 137 | 132 | 71.7 | 48.8 | 122 | 122 | 142 | 131 | 145 | 155 | 141 | 129 | 134 | 93.4 | 26.7 |  |  |  |  |  |  |  |  |  |  | 
CC(C(C)N1CC(=O)NC(=O)C1)N1CC(=O)NC(=O)C1 (configuration not stated) |  |  |  |  |  |  |  |  |  |  |  |  |  |  |  |  |  |  |  |  |  |  | 110 | 121 | 139 | 133 | 127 | 123 | 139 | 135 | 130 | 124 | 106
CN1CCc2c(c3ccccc3n2Cc2ccc(C(=O)NO)cc2)C1 | 76 | 78.8 | 76.3 | 79.8 | 80 | 80.5 | 82.6 | 87.6 | 97.5 | 64.7 | 38.6 | 75.2 | 70.2 | 77.2 | 82.5 | 74.1 | 73.4 | 80.9 | 76.5 | 75.8 | 78.7 | 47.2 | 71.5 | 69.8 | 91.9 | 91.1 | 84.6 | 87.7 | 89.5 | 98 | 92.5 | 72.3 | 53.5
CCOC(=O)c1c(C)n(C)c2ccc(O)cc12 |  |  |  |  |  |  |  |  |  |  |  |  |  |  |  |  |  |  |  |  |  |  | 115 | 120 | 115 | 113 | 125 | 119 | 124 | 120 | 108 | 101 | 96.6
CN1C(=O)c2sccc2N(C)c2nc(Nc3ccc([S+](N)(=O)[O-])cc3)ncc21 | 113 | 100 | 115 | 104 | 97 | 117 | 105 | 73.4 | 60.5 | 28.5 | 8.75 | 97.2 | 93.2 | 98.4 | 104 | 106 | 90.4 | 90 | 92.9 | 55.3 | 36.4 | 7.28 | 97.8 | 94.7 | 109 | 99.3 | 99 | 95.1 | 98.2 | 70.8 | 53.5 | 33.2 | 4.45
CCCOc1ccc(C(=O)OCCN(CC)CC)cc1N | 109 | 124 | 124 | 121 | 140 | 130 | 132 | 139 | 121 | 112 | 106 | 107 | 115 | 122 | 123 | 107 | 120 | 113 | 111 | 123 | 118 | 118 | 111 | 127 | 115 | 118 | 120 | 128 | 121 | 119 | 117 | 131 | 121
Cc1cc(Nc2ncc3c(n2)N(C)C(=O)N(c2cc(NC(=O)c4cccc(C(F)(F)F)c4)ccc2C)C3)n(C)n1 | 90.6 | 134 | 123 | 116 | 134 | 111 | 90.5 | 56.7 | 32.2 | 25.9 | 7.8 | 99.6 | 111 | 132 | 156 | 132 | 130 | 146 | 70.6 | 43.8 | 29.6 | 10.7 | 113 | 115 | 123 | 134 | 134 | 132 | 115 | 60.2 | 38.7 | 32.7 | 17.7
C[C@]12CCC3c4ccc(O)cc4CCC3C1CCC2=O (some centres not stated) | 102 | 102 | 106 | 103 | 107 | 91.9 | 86.2 | 81.6 | 93 | 78.2 | 79.9 | 92.2 | 91.7 | 92.3 | 85.7 | 87.7 | 88.2 | 92.4 | 90.8 | 96.1 | 76 | 79.6 | 82.1 | 90.5 | 91.7 | 92.8 | 96.4 | 86.5 | 86.1 | 84.4 | 89 | 88.6 | 81.1
Nc1nc(F)nc2c1ncn2[C@@H]1O[C@H](COP(=O)(O)O)[C@@H](O)[C@@H]1O | 121 | 123 | 135 | 134 | 123 | 125 | 129 | 126 | 109 | 47.3 | 21 | 112 | 112 | 130 | 123 | 125 | 115 | 133 | 118 | 117 | 109 | 38 |  |  |  |  |  |  |  |  |  |  | 
CC(C)(N)C(=O)N[C@H](COCc1ccccc1)C(=O)N1CCC2(CC1)CN([S+](C)(=O)[O-])c1ccccc12 |  |  |  |  |  |  |  |  |  |  |  | 117 | 122 | 132 | 124 | 123 | 123 | 122 | 115 | 113 | 109 | 110 |  |  |  |  |  |  |  |  |  |  | 
